Laboratory results published in publication PMC9833666, “Designing and identifying β-hairpin peptide macrocycles with antibiotic potential” (Science Advances, 2023).
Read-outs that look alike come from different tables or passages of the source. Bridge positions count the residues as written; N and C are the ends. Peptide text beside a SMILES is read from it.

Columns and labels:
[1] = test system: Single-donor human red blood cells; experiment: Hemolysis assay; assay type: cell-based; details: hemolysis at 128 µg/ml, fold change relative to SySA-5
Method in brief: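 Peptides at 300 μg/ml (SySA library) or 128 μg/ml (SySA-5 optimization library) were incubated in triplicate with washed single-donor RBCs (1 × 10^9 cells/ml) for 3 h at 37 °C. Supernatant A540 was background-normalized to PBS and expressed relative to 1% Triton X-100 (100% hemolysis).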

[2] = test system: Acinetobacter baumannii AB5075; details: for AB5075 MIC FBS: 100% fetal bovine serum; for AB5075 MIC MH: Mueller-Hinton

SMILES	Fold Change Hemolysis [1]	AB5075 MIC FBS ([2]; replicate 1) [µg/mL]	AB5075 MIC FBS ([2]; replicate 2) [µg/mL]	AB5075 MIC FBS ([2]; replicate 3) [µg/mL]	AB5075 MIC MH ([2]; replicate 1) [µg/mL]	AB5075 MIC MH ([2]; replicate 2) [µg/mL]	AB5075 MIC MH ([2]; replicate 3) [µg/mL]	AB5075 MIC FBS ([2]; median of triplicate) [µg/mL]	AB5075 MIC MH ([2]; median of triplicate) [µg/mL]
CC(C)C[C@@H]1NC(=O)[C@H](CCCNC(=N)N)NC(=O)[C@H](C(C)C)NC(=O)[C@@H]2CSSC[C@H](NC(=O)[C@H](CC(C)C)NC(=O)[C@H](CCCNC(=N)N)NC(=O)[C@H](C(C)C)NC(=O)[C@H](CCCNC(=N)N)NC(=O)[C@H](CC(C)C)NC(=O)[C@@H](N)CSSC[C@@H](C(=O)O)NC(=O)[C@H](C(C)C)NC(=O)[C@H](CCCNC(=N)N)NC1=O)C(=O)N[C@@H](CCCNC(=N)N)C(=O)N[C@@H](CCCNC(=N)N)C(=O)N[C@@H](CCCNC(=N)N)C(=O)N2 [SySA-5.22] (H-CLRVRLCRRRCVRLRVC-OH; disulfide 1-17, 7-11 (inferred); N-terminus and C-terminus assumed)	2.1	64	64	64	32	8	32	–	–
CC(C)C[C@@H]1NC(=O)[C@H](CO)NC(=O)[C@H](C(C)C)NC(=O)[C@H](CCCCN)NC(=O)[C@H](C(C)C)NC(=O)[C@@H]2CSSC[C@H](NC(=O)[C@H](CC(C)C)NC(=O)[C@H](CCCNC(=N)N)NC(=O)[C@H](C(C)C)NC(=O)[C@H](CCCNC(=N)N)NC(=O)[C@@H](N)CSSC[C@@H](C(=O)O)NC(=O)[C@H](CCCNC(=N)N)NC1=O)C(=O)N[C@@H](CC(N)=O)C(=O)N[C@@H](CCCNC(=N)N)C(=O)N[C@@H](CCCNC(=N)N)C(=O)N[C@@H](CCCNC(=N)N)C(=O)N2 [SySA-5.8] (H-CRVRLCNRRRCVKVSLRC-OH; disulfide 1-18, 6-11 (inferred); N-terminus and C-terminus assumed)	0.8	>128	>128	>128	8	8	8	–	–
CC(C)C[C@@H]1NC(=O)[C@H](CO)NC(=O)[C@H](C(C)C)NC(=O)[C@@H]2CSSC[C@H](NC(=O)[C@H](CC(C)C)NC(=O)[C@H](CCCNC(=N)N)NC(=O)[C@H](C(C)C)NC(=O)[C@H](CCCNC(=N)N)NC(=O)[C@H](CC(C)C)NC(=O)[C@@H](N)CSSC[C@@H](C(=O)O)NC(=O)[C@H](C(C)C)NC(=O)[C@H](CCCNC(=N)N)NC1=O)C(=O)N[C@@H](CCCNC(=N)N)C(=O)N[C@@H](CCCNC(=N)N)C(=O)NCC(=O)N[C@@H](CCCNC(=N)N)C(=O)N2 [SySA-5.13] (H-CLRVRLCRRGRCVSLRVC-OH; disulfide 1-18, 7-12 (inferred); N-terminus and C-terminus assumed)	3.2	>128	>128	>128	32	8	16	–	–
CC(C)C[C@@H]1NC(=O)[C@H](CCCNC(=N)N)NC(=O)[C@H](C(C)C)NC(=O)[C@H](CCCNC(=N)N)NC(=O)[C@H](CC(C)C)NC(=O)[C@@H](N)CSSC[C@@H](C(=O)O)NC(=O)[C@H](C(C)C)NC(=O)[C@H](CCCNC(=N)N)NC(=O)[C@H](CC(C)C)NC(=O)[C@H](CCCNC(=N)N)NC(=O)[C@H](C(C)C)NC(=O)[C@H](CCCCN)NC(=O)[C@H](C(C)C)NC(=O)[C@@H]2CSSC[C@H](NC1=O)C(=O)N[C@@H](CCCNC(=N)N)C(=O)N[C@@H](CCCNC(=N)N)C(=O)N[C@@H](CCCNC(=N)N)C(=O)N[C@@H](CCCNC(=N)N)C(=O)N2 [SySA-5.4] (H-CLRVRLCRRRRCVKVRLRVC-OH; disulfide 1-20, 7-12 (inferred); N-terminus and C-terminus assumed)	2.9	64	64	64	4	8	8	–	–
CC(C)C[C@@H]1NC(=O)[C@H](CO)NC(=O)[C@H](C(C)C)NC(=O)[C@@H]2CSSC[C@H](NC(=O)[C@H](CC(C)C)NC(=O)[C@H](CCCNC(=N)N)NC(=O)[C@H](C(C)C)NC(=O)[C@H](CCCNC(=N)N)NC(=O)[C@H](CC(C)C)NC(=O)[C@@H](N)CSSC[C@@H](C(=O)O)NC(=O)[C@H](C(C)C)NC(=O)[C@H](CCCNC(=N)N)NC1=O)C(=O)N[C@@H](CCCNC(=N)N)C(=O)N[C@@H](CCCNC(=N)N)C(=O)N[C@@H](CCCNC(=N)N)C(=O)N2 [SySA-5.21] (H-CLRVRLCRRRCVSLRVC-OH; disulfide 1-17, 7-11 (inferred); N-terminus and C-terminus assumed)	2.4	128	>128	>128	16	16	32	–	–
CC(C)C[C@@H]1NC(=O)[C@H](CCCNC(=N)N)NC(=O)[C@H](C(C)C)NC(=O)[C@H](CCCCN)NC(=O)[C@H](CCCNC(=N)N)NC(=O)[C@H](CCCNC(=N)N)NC(=O)[C@H](CCCNC(=N)N)NC(=O)[C@H](CCCNC(=N)N)NC(=O)[C@H](CCCNC(=N)N)NC(=O)[C@H](CC(C)C)NC(=O)[C@H](CCCNC(=N)N)NC(=O)[C@H](C(C)C)NC(=O)[C@H](CCCNC(=N)N)NC(=O)[C@H](CC(C)C)NC(=O)[C@@H](N)CSSC[C@@H](C(=O)O)NC(=O)[C@H](C(C)C)NC(=O)[C@H](CCCNC(=N)N)NC1=O [SySA-5.12] (H-CLRVRLRRRRRKVRLRVC-OH; disulfide 1-18)	3.7	–	–	–	–	–	–	> 128	4
CC(C)C[C@@H]1NC(=O)[C@H](CCCNC(=N)N)NC(=O)[C@H](C(C)C)NC(=O)[C@@H]2CSSC[C@H](NC(=O)[C@H](CC(C)C)NC(=O)[C@H](CCCNC(=N)N)NC(=O)[C@H](C(C)C)NC(=O)[C@H](CCCNC(=N)N)NC(=O)[C@H](CC(C)C)NC(=O)[C@@H](N)CSSC[C@@H](C(=O)O)NC(=O)[C@H](C(C)C)NC(=O)[C@H](CCCNC(=N)N)NC1=O)C(=O)N[C@@H](CCCNC(=N)N)C(=O)N[C@@H](CCCNC(=N)N)C(=O)N[C@@H](CCCNC(=N)N)C(=O)N[C@@H](CCCNC(=N)N)C(=O)N2 [SySA-5.14] (H-CLRVRLCRRRRCVRLRVC-OH; disulfide 1-18, 7-12 (inferred); N-terminus and C-terminus assumed)	5.6	64	64	64	8	4	4	–	–
